Data reported in patent publication US20050069907A1, “Methods for using double-mutant RNA polymerases with reduced discrimination between non-canonical and canonical nucleoside triphosphates” (priority 2002, published 2005).
Marks after values point to notes of the source that are not given here.

Columns and labels:
supercoiled pT75 [1] = assay: rNTP/dNTP selectivity assay: labeled rNTP vs dNTP incorporation with 4 unlabeled rNTPs; format: biochemical
Description: Transcription reactions: Transcription reactions were carried out in 40 mM Tris-Cl pH 8.0, 15 mM MgCl2, and 5 mM DTT or 20 mM Manganese Citrate pH 8.0, 5 mM DTT at 37° C. Template, polymerase, and NTP concentrations were as indicated in the legends to the figures and tables. Relative activity determinations were made by taking 4 μl aliquots of reactions at 5, 10, and 20 minute time points and spotting on to DE81 filter paper. Unincorporated nucleotides were separated from incorporated nucleotides by washing the filter paper with 0.5 M KH2PO4 pH 7.0 and retained radioactive nucleotide was quantitated with a Molecular Dynamics phosphorimager. To evaluate rNTP/dNTP selectivity, reactions were run with 4 rNTPs and pT75 as template and α-P^32 rNTPs or α-P^32 dNTPs were used to label the transcripts. The relative rate of incorporation of an rNTP vs. its cognate dNTP was determined from the relative percentages of labeled rNTP vs. dNTP incorporated into DE81 retainable RNA at 5, 10, and 20 minute time points. Apparent miscoding frequencies were determined similarly, though in this instance the template was a single-stranded homopolymer and the reaction contained the complementary unlabeled rNTP, and complementary α-P^32 rNTP or one of the 3 non-complementary α-P^32 rNTPs. The relative percentages of labeled complementary vs. non-complementary rNTPs incorporated at 5, 10 and 20 minute time points gave an apparent miscoding rate. The rNTP/dNTP selectivity assay was used to test the following T7 RNAP mutants for effects on substrate discrimination: D537S, D537E, S539A, R5S1S, D552S, R627S, K631S, L637A, Y639S, Y639F, Y639A, G640A, F644A, G645A, Q649S, […], H811S, H811A, D812A, D812E, D812S, D812N, D879E+ΔF882+ΔA883, D879E+A881T+ΔA883, D879E+F884+A885, D879E+F882Y, D879E+ΔA883, D879E+F882W, D879E.
Relative selectivity of the mutant and W.T. polymerases for dNTPs and rNTPs: FIGS. 1-3 present a qualitative analysis of the structure of the transcripts produced by the W.T. and Y639F polymerases with various combinations of NTPs. […] To obtain a quantitative measure of the relative selectivity of the W.T. and mutant polymerases for dNTPs vs. rNTPs under conditions where transcript structure was not a complicating factor, reactions were carried out in which all 4 rNTPs were present but rNTPs or dNTPs were used to radiolabel the transcripts (see Table I).
Under these conditions the unlabeled rNTPs were present in vast excess relative to the labeling NTPs so labeling dNTPs are almost always incorporated adjacent to rNTPs and into transcripts of nearly uniform rNMP structure. […] This assay was used to screen our collection of T7 RNAP active site mutants for increased dNTP utilization. In this screen dATP incorporation in transcription reactions was examined with all of these mutants using supercoiled pT75 as the template, 4 cold rNTPs, and P32-rATP or P32-dATP to label. […] It has been reported that use of Mn^2+ instead of Mg^2+ decreases substrate discrimination and increases miscoding for a number of polymerases (Tabor and Richardson, 1989; Nivogi and Feldman, 1981). Therefore, the rNTP/dNTP selectivity of the mutant and W.T. enzymes were examined in Mn^2+-citrate buffer (Tabor and Richardson, 1989).

[2] = 2′,3′-dideoxy NTP preference (relative specificity kcat/Km NTP vs ddNTP); format: biochemical
Excerpt: Numbers reflect the relative specificity (kcat/Km) for an NTP vs. the corresponding ddNTP. Relative specificities could not be evaluated for the wild-type T7 RNAP because the ddNTPs are such poor substrates, but these relative specificities appear to be at least 150-fold.

[3] = transcripts synthesized in vivo; cited from earlier work
supercoiled pT75 [4] = assay: Transcript elongation rate in 3 rNTP + 1 dNTP reactions; format: biochemical
Description: Elongation rate determinations were carried out as described (Golomb and Chamberlin, 1974) with some variations (Bonner, et al., 1994).
Elongation rates of Y639F in reactions containing a single dNTP: Elongation rates for Y639F in reactions with 4 rNTPs or 1 dNTP and 3 rNTPs were determined by analyzing aliquots, taken at 10 second intervals, from transcription reactions initiated on supercoiled PT75 by adding NTPs to otherwise complete reaction mixes (FIG. 6).
The template was supercoiled pT75 at 5×10^-7 M. Y639F polymerase was used at a concentration of 10^-6 M. Reactions contained the indicated NTPs. Labeling was with α-P32-rATP (lane e) or α-P32-rGTP (other lanes). After initiation of the reactions aliquots were taken at 10 second intervals and analyzed on 1% agarose denaturing-formaldehyde gels. […] The bars indicate the positions of λ DNA markers.
When analyzed on denaturing agarose gels (FIG. 6) the heterogeneously sized transcripts from these reactions are resolved as a smear with the trailing edge of the smear corresponding to transcripts initiated at t=0 and from which the maximal transcript elongation rate can be determined (Golomb and Chamberlin, 1974; Bonner, et al., 1994). The following elongation rate reductions (relative to a ‘4 rNTP’ reaction) were obtained for reactions containing a 3 rNTPS and 1 dNTP:dATP, ˜3-fold; dUTP, ˜2-fold; dGTP ˜1.5-fold; dCTP, 1-1.5-fold. Because of its poor activity in reactions with dNTPs it was difficult to determine the corresponding elongation rate reductions for the W.T. enzyme.

[5] = tested on: 12 base DNA or RNA primers hybridized to a DNA template; assay: DNA- and RNA-primed synthesis of DNA and RNA; format: biochemical
Excerpt: DNA- and RNA-primed synthesis of DNA and RNA: In the assays described so far de novo initiated synthesis has been examined. T7 RNAP can also extend RNA primers. Therefore, the abilities of both polymerase to carry out DNA or RNA primed synthesis of DNA and RNA (FIG. 5) were examined.
Transcription reactions contained end-labeled 12 base DNA or RNA primers of identical sequence (GGACACGGCGAA, SEQ ID NO: 4) hybridized to a DNA template ([…] TAAGTATCC, SEQ ID NO: 5). Primer-template concentration was 10^-5 M. Reactions contained the indicated polymerases (10^-7 M) and NTPs. NTP concentrations and electrophoresis as in FIG. 1.

[6] = Mg^2+ buffer, range of 2 experiments

| Substance | Relative selectivity rCTP/dCTP (supercoiled pT75 [1]; Mg^2+ buffer) | Relative selectivity rGTP/dGTP (supercoiled pT75 [1]; Mg^2+ buffer) | Relative selectivity rUTP/dTTP (supercoiled pT75 [1]; Mg^2+ buffer) | Relative selectivity rATP/dATP (supercoiled pT75 [1]; [6]) | Relative selectivity rATP/dATP (supercoiled pT75 [1]; Mn^2+ buffer) | Relative selectivity rCTP/dCTP (supercoiled pT75 [1]; Mn^2+ buffer) | Relative selectivity rGTP/dGTP (supercoiled pT75 [1]; Mn^2+ buffer) | Relative selectivity rUTP/dTTP (supercoiled pT75 [1]; Mn^2+ buffer) | Relative specificity NTP vs. corresponding ddNTP [2] | Protein per transcript compared to transcripts synthesized by wild-type enzyme [3] | Elongation rate reduction relative to 4 rNTP reaction (supercoiled pT75 [4]; 3 rNTPs and dATP) [fold] | Elongation rate reduction relative to 4 rNTP reaction (supercoiled pT75 [4]; 3 rNTPs and dCTP) | Elongation rate reduction relative to 4 rNTP reaction (supercoiled pT75 [4]; 3 rNTPs and dGTP) [fold] | Elongation rate reduction relative to 4 rNTP reaction (supercoiled pT75 [4]; 3 rNTPs and dUTP) [fold] | Reduction in selectivity for rNTPs over dNTPs relative to W.T., on average (supercoiled pT75 [1]) [fold] | Extension of DNA and RNA primers with dNTPs less efficient than with rNTPs [5] [fold] |
| --- | --- | --- | --- | --- | --- | --- | --- | --- | --- | --- | --- | --- | --- | --- | --- | --- |
| W.T.: wild-type T7 RNA polymerase [reference compound] | 110-150 | 51-67 | 22-25 | 72-83 (Mg)* | 6-14 (Mn)* | 4.3-5.1 | 4.4-6.3 | 2.3-2.8 | at least 150 fold |  |  |  |  |  |  |  |
| Y639F: T7 RNAP with wild-type tyrosine at position 639 substituted by phenylalanine | 2.4-2.5 | .93-1.6 | 1.7-1.9 | 8.5-10 (Mg)* | .9-1.0 (Mn)* | .55-.80 | .98-.99 | .48-.76 |  | ½-⅓ | ~3 | 1-1.5 fold | ~1.5 | ~2 | ~20 | ~4 |
